From PubChem BioAssay AID1963974 (Molecular Pharmacology Branch, DTP, NCI, 2024)

Tested on: 648629-189-R-J1-PDC spheroids with HUVEC/MSC, viability
Experiment: Anticancer human tumor 648629-189-R-J1-PDC patient-derived bladder carcinoma cell line growth inhibition [PI3K]
Conditions: for IC50: curve of first compound; for viability, T/C: stronger effect = lower value
Description: Combinatorial screen of targeted agents with the PI3K inhibitors inavolisib, alpelisib, duvelisib, and copanlisib in multi-cell type tumor spheroids
A high-throughput screen of multi-cell type tumor spheroids was designed to identify active combinations of targeted small molecules and PI3K pathway inhibitors. Complex spheroids include a stromal component modeled by human endothelial cells (HUVEC) and fibroblasts modeled by human mesenchymal stem cells (MSCs). The concentration ranges selected for each drug and investigational agent were based upon clinically achievable concentrations if the clinical Cmax of the agent was known.
Compounds. The drugs and investigational agents: inavolisib (NSC800729), alpelisib (NSC765974), duvelisib (NSC772469), copanlisib (NSC816437), ipatasertib (NSC767898), afuresertib (NSC778305), talazoparib (NSC767125), sapanisertib (NSC764658), selumetinib (NSC741078), tovorafenib (DAY101, NSC766906), vemurafenib (NSC761431), ravoxertinib (NSC781343), sotorasib (NSC818433), MRTX1133 (NSC 836407), abemaciclib (NSC 768073), palbociclib (NSC758247), venetoclax (NSC 766270), SY5609 (NSC837396), enzalutamide (NSC755605), and darolutamide (NSC825331), were obtained from the National Cancer Institute (NCI) Developmental Therapeutics Program Chemical Repository. The FDA-approved anticancer drug set is available from the NCI Developmental Therapeutics Program. […] The stock solutions were prepared in dimethyl sulfoxide (DMSO, Sigma-Aldrich, St. Louis, MO, cat. D2650) at 800-fold the tested concentration and stored at -70 degrees C prior to their use. All drugs and investigational agents were tested over a range starting from a high concentration at or near the clinical Cmax and decreasing in half-log increments. If the clinical Cmax for an agent had not been determined, the highest concentration tested was 10 microM.
Cell Culture. All cells were maintained in an incubator at 37 degrees C and 5% CO2 with 95% humidity. The PDC lines were cultured according to standard operating procedures established by the NCI PDMR (https://pdmr.cancer.gov/sops/default.htm). All PDCs were thawed and cultured in Matrigel-coated flasks prepared with a working solution of 1X Ham's F-12 nutrient mix, without supplementation (Invitrogen, Waltham, MA, cat. 11765054), 100 U/mL penicillin-streptomycin (Invitrogen, cat. 15140122), and 2.5% Matrigel (Corning Inc., Corning, NY, cat. 354248) for the first three passages. The 354836-022-R-J1-PDC, 475296-252-R-J1-PDC, and 997726-040-R-J2-PDC lines were cultured in 6A media, which includes advanced DMEM/F-12 (Thermo Fisher Scientific, cat. 12634028), 10 mM HEPES (Thermo Fisher Scientific, cat. 15630080), 1X GlutaMAX supplement (Thermo Fisher Scientific, cat. 35050061), 0.1 mg/mL primocin (InvivoGen, San Diego, CA, cat. ant-pm-2), 10% defined fetal bovine serum, heat inactivated (HyClone Laboratories Inc., Logan, UT, cat. SH30070.03HI), 50% L-WRN conditioned media (ATCC, cat. CRL-3276), 1.25 mM N-Acetyl-L-cysteine (Sigma-Aldrich, cat. A9165), 10 mM nicotinamide (Sigma-Aldrich, cat. N0636), 1X B-27 supplement (Thermo Fisher Scientific, cat. 17504044), 1X N-2 supplement (Thermo Fisher Scientific, cat. 17502048), and 10 microM Y-27632 dihydrochloride (Tocris Bioscience, Bristol, United Kingdom, cat. 1254). The 624824-186-R-J2-PDC line was cultured in 6C/Colon 1B media, which includes all 6A media components plus 50 ng/mL human EGF recombinant protein (Thermo Fisher Scientific, cat. PHG0311). […]

[1] = second compound 0.0316 µM, first compound 0.0316 µM
[2] = second compound 0.0316 µM, first compound 0.1 µM
[3] = second compound 0.0316 µM, first compound 0.316 µM
[4] = second compound 0.0316 µM, first compound 1 µM
[5] = second compound 0.0316 µM, first compound 3.16 µM
[6] = second compound 0.0316 µM, first compound 10 µM
[7] = second compound 0.1 µM, first compound 0.0316 µM
[8] = second compound 0.1 µM, first compound 0.1 µM
[9] = second compound 0.1 µM, first compound 0.316 µM
[10] = second compound 0.1 µM, first compound 1 µM
[11] = second compound 0.1 µM, first compound 3.16 µM
[12] = second compound 0.1 µM, first compound 10 µM
[13] = second compound 0.316 µM, first compound 0.0316 µM
[14] = second compound 0.316 µM, first compound 0.1 µM
[15] = second compound 0.316 µM, first compound 0.316 µM
[16] = second compound 0.316 µM, first compound 1 µM
[17] = second compound 0.316 µM, first compound 3.16 µM
[18] = second compound 0.316 µM, first compound 10 µM
[19] = second compound 1 µM, first compound 0.0316 µM
[20] = second compound 1 µM, first compound 0.1 µM
[21] = second compound 1 µM, first compound 0.316 µM
[22] = second compound 1 µM, first compound 1 µM
[23] = second compound 1 µM, first compound 3.16 µM
[24] = second compound 1 µM, first compound 10 µM
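Note: spheroids exposed to agents for seven days before reading.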
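Throughout, for viability, T/C: percent of vehicle control luminescence where 100% = DMSO treated spheroids.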

## CC1(C)CCC(Nc2ncc(C(F)(F)F)c(-c3c[nH]c4c(P(C)(C)=O)c(C#N)ccc34)n2)CN1 (centres undefined) + CC(Nc1ncnc2nc[nH]c12)c1cc2cccc(Cl)c2c(=O)n1-c1ccccc1
Second compound 0.0316 µM
  IC50: < 31.6 nM
Second compound 0.1 µM
  IC50: < 31.6 nM
Second compound 0.316 µM
  IC50: < 31.6 nM
Second compound 1 µM
  IC50: < 31.6 nM
Second compound 3.16 µM
  IC50: < 31.6 nM
Second compound 10 µM
  IC50: < 31.6 nM
[1]
  viability, T/C: 35.1%
[2]
  viability, T/C: 29%
[3]
  viability, T/C: 35.4%
[4]
  viability, T/C: 35.2%
[5]
  viability, T/C: 43%
[6]
  viability, T/C: 11.7%
[7]
  viability, T/C: 36.7%
[8]
  viability, T/C: 33.5%
[9]
  viability, T/C: 28.3%
[10]
  viability, T/C: 36%
[11]
  viability, T/C: 39.6%
[12]
  viability, T/C: 10.8%
[13]
  viability, T/C: 32%
[14]
  viability, T/C: 29.4%
[15]
  viability, T/C: 29.1%
[16]
  viability, T/C: 31.8%
[17]
  viability, T/C: 39.1%
[18]
  viability, T/C: 11.5%
[19]
  viability, T/C: 30.6%
[20]
  viability, T/C: 32.4%
[21]
  viability, T/C: 29.8%
[22]
  viability, T/C: 31.6%
[23]
  viability, T/C: 42%
[24]
  viability, T/C: 10.1%
Second compound 3.16 µM, first compound 0.0316 µM
  viability, T/C: 34%
Second compound 3.16 µM, first compound 0.1 µM
  viability, T/C: 29.2%
Second compound 3.16 µM, first compound 0.316 µM
  viability, T/C: 28.9%
Second compound 3.16 µM, first compound 1 µM
  viability, T/C: 30.7%
Second compound 3.16 µM, first compound 3.16 µM
  viability, T/C: 36.2%
Second compound 3.16 µM, first compound 10 µM
  viability, T/C: 7.47%
Second compound 10 µM, first compound 0.0316 µM
  viability, T/C: 39.7%
Second compound 10 µM, first compound 0.1 µM
  viability, T/C: 32%
Second compound 10 µM, first compound 0.316 µM
  viability, T/C: 33.3%
Second compound 10 µM, first compound 1 µM
  viability, T/C: 30.2%
Second compound 10 µM, first compound 3.16 µM
  viability, T/C: 34.7%
Second compound 10 µM, first compound 10 µM
  viability, T/C: 4.52%

## Cn1ncc(Cl)c1-c1cc(C(=O)NC(CN)Cc2cccc(F)c2)sc1Cl (centres undefined) + COc1c(OCCCN2CCOCC2)ccc2c3n(c(=NC(=O)c4cnc(N)nc4)nc12)CCN3
Second compound 0.00316 µM
  IC50: 620 nM
Second compound 0.01 µM
  IC50: 639 nM
Second compound 0.0316 µM
  IC50: 419 nM
Second compound 0.1 µM
  IC50: 110 nM
Second compound 0.316 µM
  IC50: < 31.6 nM
Second compound 1 µM
  IC50: < 31.6 nM
Second compound 0.00316 µM, first compound 0.0316 µM
  viability, T/C: 110%
Second compound 0.00316 µM, first compound 0.1 µM
  viability, T/C: 102%
Second compound 0.00316 µM, first compound 0.316 µM
  viability, T/C: 59.3%
Second compound 0.00316 µM, first compound 1 µM
  viability, T/C: 40.3%
Second compound 0.00316 µM, first compound 3.16 µM
  viability, T/C: 23.1%
Second compound 0.00316 µM, first compound 10 µM
  viability, T/C: 7.29%
Second compound 0.01 µM, first compound 0.0316 µM
  viability, T/C: 97.9%
Second compound 0.01 µM, first compound 0.1 µM
  viability, T/C: 84%
Second compound 0.01 µM, first compound 0.316 µM
  viability, T/C: 70.5%
Second compound 0.01 µM, first compound 1 µM
  viability, T/C: 35.2%
Second compound 0.01 µM, first compound 3.16 µM
  viability, T/C: 22.1%
Second compound 0.01 µM, first compound 10 µM
  viability, T/C: 6.56%
[1]
  viability, T/C: 84.6%
[2]
  viability, T/C: 78.2%
[3]
  viability, T/C: 53.5%
[4]
  viability, T/C: 32.2%
[5]
  viability, T/C: 16.9%
[6]
  viability, T/C: 4.04%
[7]
  viability, T/C: 67.5%
[8]
  viability, T/C: 52.1%
[9]
  viability, T/C: 34%
[10]
  viability, T/C: 21.8%
[11]
  viability, T/C: 10.3%
[12]
  viability, T/C: 3.19%
[13]
  viability, T/C: 21.9%
[14]
  viability, T/C: 16.6%
[15]
  viability, T/C: 11.8%
[16]
  viability, T/C: 7.56%
[17]
  viability, T/C: 4.03%
[18]
  viability, T/C: 1.46%
[19]
  viability, T/C: 4.06%
[20]
  viability, T/C: 2.7%
[21]
  viability, T/C: 2.87%
[22]
  viability, T/C: 2.72%
[23]
  viability, T/C: 2.27%
[24]
  viability, T/C: 0.3%
